# Columns and labels:
# [1] = system: cancer cells; assay: Drug synergy testing (Chou-Talalay CI), cell line not stated (FIG. 17B); format: cell-based
# Experimental: (§1) The coefficient of interaction (CI) between pharmacological inhibitors was established by the Chou-Talalay method (Chou et al., (1984) Adv Enzyme Regul 22:27). The software package CalcuSyn (BioSoft, UK) was used to automate calculations. Briefly, for each drug tested, an IC50 curve was established in each cell line, and used to select combination doses of drugs for subsequent synergy tests. 3500 cells were plated per well in 96-well plates. After 24 hours, cells were treated with serial dilutions of individual inhibitors, or combinations of two inhibitors maintained at a constant molar ratio. After 72 hours incubation, cell viability was measured using either CellTiter Blue (Promega, USA) or a WST1 assay (Roche Applied Science, Indianapolis, Ind.). The CI values for each dose and corresponding cytotoxicity were expressed as the fraction affected (Fa) and were calculated using CalcuSyn computer software and presented as Fa-CI plots. CI values <1 indicate synergy, and <0.5 strong synergy, between the two agents in producing cytotoxic effect.
# [2] = system: A431 cells; assay: Cell motility, wound healing assay; format: cell-based, human; details: 0.5 μM erlotinib with 0.5 μM Stattic or 0.25 μM Ro-318220, 18 hours
# Experimental: Soft agar assays were done essentially as described (10). Cells were seeded at 2000 cells per well and grown for 2-3 weeks. Colonies were stained with thiazolyl blue tetrazolium bromide, and scored using a Nikon SMZ1500 microscope coupled with Cool Snap charge coupled device camera (Roper Scientific, Inc., Tucson, Ariz.) with Image Pro-Plus software (Media Cybernetics, Silver Spring, Md.). Survival curves were based on at least two concentration points, with values determined in at least two separate experiments, with each assay done in duplicate. Drug interactions were calculated as above using CalcuSyn software (Biosoft, Ferguson, Mo.) to establish the combination index (CI). For motility assays, movement of A431 cells grown in 1% FCS into a scratched area of the monolayer was monitored with a phase contrast 10× objective using an inverted microscope (Nikon TE2000). Images were obtained every 20 min for 18 hours. Areas of migration were estimated using MetaMorph software. For both studies, analysis of variance was used to determine the treatment effect for each comparison. The logarithm of normalized ratios (to vehicle control) was used in the analysis. Multiple hypothesis testing was accounted for by the false discovery rate method of Benjamini & Hochberg (supra).
# [3] = system: A431 cells; assay: Drug synergy testing (Chou-Talalay CI), viability; format: cell-based, human; details: 72 hours, CI <1 synergy, <0.5 strong synergy
# Experimental: as §1
# [4] = system: HCT116 cells; assay: Drug synergy testing (Chou-Talalay CI), viability; format: cell-based, human; details: HCT116; 72 hours; CI <1 synergy, <0.5 strong synergy
# Experimental: as §1
# [5] = system: AKT; assay: Western analysis of AKT activation in A431 lysates (siRNA or inhibitors), basal and EGF-stimulated; format: cell-based, human; details: serum starvation or EGF stimulation (FIG. 16)
# Experimental: To measure the effect of siRNAs on the activity of EGFR effectors, cells were transfected with siRNA, and the culture media replaced with glutamine-supplemented serum-free DMEM at 24 hrs post-transfection. After overnight incubation, cells were treated with DMSO, erlotinib or PHA-680632 for 2 hrs, then either left untreated, or stimulated with EGF at 15 ng/ml for 15 minutes. Cell extracts were prepared using M-PER™ mammalian protein extraction buffer (Thermo Scientific, Rockford, Ill.) supplemented with the Halt™ phosphatase inhibitor cocktail (Thermo Scientific, Rockford, Ill.) and the Complete Mini™ protease inhibitor cocktail (Roche Diagnostics Gmbh, Manheim, Germany). Extracts were centrifuged at 15,000 g for 10 min at 4° C. Western signal detection was performed using antibodies to indicated proteins with LiCor technology (Lincoln, Nebr., USA) or standard X-ray film.
# [6] = system: A431 cells; assay: Phosphoproteomic analysis, Proteome Profiler array of 46 signaling proteins; format: cell-based, human; details: A431, serum starved, EGF-stimulated (FIG. 19A)
# Experimental: For phosphoproteomic analysis, we used the Proteome Profiler™ array (R&D Systems, Minneapolis, Minn., USA) according to the manufacturer's protocol. In brief, A431 cells were grown for 24 hours in DMEM supplemented with L-glutamine and 1% FBS to 70% confluency. Cells then were either serum starved overnight or remained in the same media. Serum starved and cells incubated in 1% serum were either left untreated or incubated with IC30 concentrations of inhibitors for 3 hours. […] Serum-starved cells were subsequently stimulated with recombinant EGF (Sigma-Aldrich, USA) at 15 ng/mL for 15 minutes before lysis. For a subset of phospho-proteins, phosphorylation status was confirmed by Western blot. Quantification was done using ImageJ software.
# [7] = system: A431 cells; assay: siRNA library sensitization screen, Alamar blue (CellTiter Blue) viability, sensitization index (SI) with erlotinib, panitumumab, U0126, CPT11 vs DMSO; format: cell-based, human; details: siRNA against the named gene, false discovery rate set at 5%; for Ratio (CPT11): sensitization to CPT11; for Ratio (Erlotinib): sensitization to erlotinib
# Excerpt: The custom siRNA library targeting 638 human genes was designed and synthesized with two siRNA duplexes for each gene target (Qiagen, Valencia, Calif.). Transfection conditions were established for the A431 […] (K-Ras wt, p53 mutant) cell line (data not shown) using PLK1 & GL2 siRNA controls to achieve Z′ values of 0.5 or greater. IC values using erlotinib, panitumumab, and camptothecin (CPT11) were established (data not shown). Details of establishment of Z′ factor for transfections, and statistical consideration for selection of preliminary positive candidates graphically outlined in FIG. 4B, and based on standard approaches described in detail in Whitehurst et al., (2007) Nature 446:815). For each gene targeted, two independent siRNA duplexes were combined and arrayed in 96-well plates with a layout intended to seed in regular positive siRNA (targeting PLK1) and negative control siRNA (targeting insect luciferase GL2, Thermo Fisher Scientific, USA) amongst test siRNAs. A reverse transfection protocol was used where siRNA at final concentration of 50 nM was mixed with Dharmafect 1 transfection reagent according to the manufacturer's instructions (Thermo Fisher, USA). Cells (3500 per well, resuspended in 1% FBS/DMEM) were added directly to wells using an automated liquid dispenser. At 24 hr following transfection, two replica plates were treated with drugs at previously established IC30 or 0.02% DMSO diluted in culture media. The viability at 96 hr post-transfection was assessed using Alamar blue (CellTiter Blue Viability Assay, Promega, USA). Dose-responses for each drug and cell line were retested in parallel with each screen.
# For screening, A431 cells were transfected with siRNA followed by exposure to vehicle (0.02% DMSO), or drug used at inhibitory concentrations of 30% KA. Viability was determined for each target gene and normalized to the averaged GL2 viability on each plate. Sensitization index (SI) was calculated for each individual well on a 96-well plate as SI=(Vdrug/GL2drug)/(VDMSO/GL2DMSO), where V was viability in wells transfected with targeting duplexes and GL2 was the averaged viability of 4 wells with non-targeting negative control siRNA on the same plate. All calculations were automated using cellHTS package within open source Bioconductor Package (on the web at bioconductor.org) (Gentleman et al. (2004) Genome Biol. 5:R80). The effect of drug treatment on viability was measured based on the normalized viabilities in the drug treated and vehicle wells using Limma (Smyth, G. K. (2004) Statistical Applications in genetics and molecular biology 3, Article 3). Limma borrows strength across genes based on an empirical Bayes approach and identifies statistically significant changes in viability by combining information from a set of gene-specific tests. Hits were identified based on statistical significance as well as biological significance. Statistical significance was determined by p-value controlled for the false discovery rate (FDR) using the Benjamini-Hochberg step-up method (Benjamini et al. (1995) J. Royal Stat Soc B 57:289) to account for multiple testing. […] Biological significance was arbitrarily defined as an increase or decrease in SI greater than 15%. Hits identified as statistically and biologically significant were further validated.
# Primary sensitizing hits obtained with erlotinib and/or cetuximab were further tested with erlotinib and DMSO in the A431 cell line by using 4 siRNA duplexes individually (the two originally used in the screen, plus two new non-overlapping RNA oligoribonucleotides), to confirm the sensitization phenotype at 10 nM and 50 nM concentrations. Hits were considered as validated by this method if at least 2 out of 4 siRNA reproduced the sensitization phenotype with SI≤0.85, FDR≤20% for each individual siRNA sequence in at least two independent experiments. […]
# [8] = system: A431, HCT116, DLD-1, DKS-8, LoVo, SCC61, PANC-1 and MIA PaCa-2 cell lines; assay: Cell line specificity of hit activity: siRNA sensitization to erlotinib, cetuximab and CPT11, and intrinsic viability; format: cell-based, human; details: network analysis of stronger hits (FIG. 14A)
# Experimental: Cell line specificity of hit activity. Of the confirmed set of 61 siRNA targets identified for erlotinib in A431 cells, 45 were further tested for sensitization to erlotinib, cetuximab and camptothecin in A431 versus refractory adenocarcinoma cell lines for which optimal transfection conditions and drug sensitivity had been established. […] SI and statistical significance were calculated as in the validation experiments. All experiments were performed at least three times independently.
# In subsequent data analysis, two approaches were used. […] For all experiments performed with a given cell:drug combination (e.g., A431:erlotinib, or HCT116:CPT11) averages were determined based on at least three experimental runs. […]
# In additional experiments, we comparatively profiled the efficacy of the hit panel as sensitizers of erlotinib, cetuximab, and CPT11 across a set of cell lines, including A431, the colorectal adenocarcinoma cell lines HCT116, DLD-1, DKS-8, and LoVo, the head and neck squamous cell carcinoma cell line SCC61, and the pancreatic adenocarcinoma cell lines PANC-1 and MIA PaCa-2 (FIG. 13A). […] To compensate for this difference, we analyzed the data in two ways: first, by conventional threshold analysis (FIG. 13A, left), and second, by assessing the rank order of sensitization phenotype, using relaxed statistical criteria (FIG. 13A, right; see Materials and Methods). […]
compound,measurement,setting,value
O=C(Nc1cccc(Nc2nccc(Nc3cccc(C(F)(F)F)c3)n2)c1)C1CC1 [C1368],Synergy with erlotinib (Chou-Talalay CI),[1],synergized
Cn1cc(C2=C(c3cn(CCCSC(=N)N)c4ccccc34)C(=O)NC2=O)c2ccccc21 [Ro-318220],"Cell motility, inhibitor in combination with erlotinib",[2],significantly reduced tumor cell motility
same,Synergy with erlotinib in reducing viability (Chou-Talalay CI),[3],synergized very significantly
same,Synergy with erlotinib in reducing viability (Chou-Talalay CI),[4],synergized very significantly
O=[N+]([O-])c1ccc2c(c1)S(=O)(=O)C=C2 [Stattic],"Cell motility, inhibitor in combination with erlotinib",[2],no statistically significant synergy
same,"Akt S473 phosphorylation, inhibitor in combination with erlotinib",[5],significantly reduced phosphorylation
same,Synergy with erlotinib in reducing viability (Chou-Talalay CI),[3],synergized with erlotinib
same,Synergy with erlotinib in reducing viability (Chou-Talalay CI),[4],synergized with erlotinib
Cn1cc(C2=C(c3cn(C4CCN(Cc5ccccn5)CC4)c4ccccc34)C(=O)NC2=O)c2ccccc21 [enzastaurin],"Akt S473 phosphorylation, inhibitor in combination with erlotinib",[5],significantly reduced phosphorylation
same,Synergy with erlotinib in reducing viability (Chou-Talalay CI),[3],synergized very significantly
same,Synergy with erlotinib in reducing viability (Chou-Talalay CI),[4],synergized very significantly
C#Cc1cccc(Nc2ncnc3cc(OCCOC)c(OCCOC)cc23)c1 [erlotinib],"Phosphorylation of 46 signaling proteins, single agent",[6],blocked EGF-induced activation of multiple signaling pathways
"GAB2 (sense CACCAATTCTGAAGACAACTA; target sequence only, further chemistry not given here)",Ratio (CPT11),[7],0.83
"GRB14 (sense AAGAATGTATTTCACCTGCAA; target sequence only, antisense strand not given here)",Ratio (Erlotinib),[7],0.54
"MAP3K1 (sense CACGCATGTCAAATTCTCATA; target sequence only, antisense strand not given here)",Ratio (Erlotinib),[7],0.66
"PRKACB: siRNA duplexes of the custom library targeting PRKACB (sense CAGCCTGTGTAGTGTGACAAA; target sequence only, antisense strand not given here)",Sensitizing activity of stronger hits across cell lines,[8],strong sensitizers
same,Ratio (CPT11),[7],0.43
same,Ratio (Erlotinib),[7],0.53
same,Ratio (Panitumumab),[7]; sensitization to panitumumab,0.63

# Reference: US10450613B2, “EGFR/NEDD9/TGF-β interactome and methods of use thereof for the identification of agents having efficacy in the treatment of hyperproliferative disorders” (Fox Chase Cancer Center, priority 2007, dated 2019)
